Data set [1] concerns P. aeruginosa. The conditions noted are these: cited from earlier work.
For data set [2], the system named is IL-1. In words: IL-1 levels in lungs after 14 days of inhalation. Type of data set: in vivo, rats. Particulars: then 28 day recovery evaluation. An excerpt: The explanation for this surprising effect may be that the presence of free ciprofloxacin in the lung attenuates the release of cytokines which attract macrophages into the lung.

For the molecule `CC[C@H]1OC(=O)[C@H](C)[C@@H](O[C@H]2C[C@@](C)(OC)[C@@H](O)[C@H](C)O2)[C@H](C)[C@@H](O[C@@H]2O[C@H](C)C[C@H](N(C)C)[C@H]2O)[C@](C)(O)C[C@@H](C)CN(C)[C@H](C)[C@@H](O)[C@]1(C)O` [azithromycin], the “activity against P. aeruginosa” value in data set [1] is “no direct activity”.

As to `O=C(O)c1cn(C2CC2)c2cc(N3CCNCC3)c(F)cc2c1=O` [free ciprofloxacin, ciprofloxacin], the “levels of IL-1” value in data set [2] is “return to baseline values”.

In the case of `NC[C@H]1O[C@H](O[C@H]2[C@H](O)[C@@H](O[C@H]3O[C@H](CO)[C@@H](O)[C@H](N)[C@H]3O)[C@H](N)C[C@@H]2N)[C@H](N)C[C@@H]1O` [tobramycin], the “activity against P. aeruginosa” value in data set [1] was “possesses activity”.

Source of the values: patent US9078897B1, “Concentrated, inhalable antibiotic formulation” (ARADIGM CORPORATION, priority 2006, dated 2015).
